Laboratory results from US8133847B2, “Pyrido[2,3-B]pyrazine derivatives useful as herbicidal compounds” (Syngenta Limited, priority 2006, dated 2012).

How the values were obtained:
Assay type in all cases: in vivo
Setaria faberi (SETFA) = assay: Example B2 herbicidal action, post-emergence, pots in glasshouse; settings: Application post-emergence, evaluated after 13 days (100=total damage to plant; 0=no damage to plant)
Method: (§1) Seeds of a variety of test species were sown in standard soil in pots. After 8 days cultivation (post-emergence) under controlled conditions in a glasshouse (at 24/16° C., day/night; 14 hours light; 65% humidity), the plants were sprayed with an aqueous spray solution derived from the formulation of the technical active ingredient in acetone/water (50:50) solution containing 0.5% Tween 20 (polyoxyethylene sorbitan monolaurate, CAS RN 9005-64-5). The test plants were then grown in a glasshouse under controlled conditions in a glasshouse (at 24/16° C., day/night; 14 hours light; 65% humidity) and watered twice daily. After 13 days, the test was evaluated (100=total damage to plant; 0=no damage to plant).

[1] = system: Amaranthus retroflexus (AMARE); assay: as above; settings: Application post-emergence, evaluated after 13 days (100=total damage to plant; 0=no damage to plant)
Method: as §1

[2] = system: Ipomea hederaceae (IPOHE); assay: as above; settings: Application post-emergence, evaluated after 13 days (100=total damage to plant; 0=no damage to plant)
Method: as §1

[3] = system: Echinochloa crusgalli (ECHCG); assay: as above; settings: Application post-emergence, evaluated after 13 days (100=total damage to plant; 0=no damage to plant)
Method: as §1

Solanum nigrum (SOLNI) [4] = assay: as above; settings: Application post-emergence, evaluated after 13 days
Method: as §1

[5] = system: Nasturtium officinale (NAAOF); assay: Example B1 herbicidal action, post-emergence, 96-cell seed trays, climatic chamber; design: scale not given here; settings: Application post-emergence, 1000 mg/l spray equivalent to 1000 g/ha, evaluated after 9 days (100=total damage to plant, 0=no damage to plant)
Outline: (§2)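 Plants at 8–9 days post-sowing (23/17 °C, 13 h light, 50–60% humidity) sprayed post-emergence with 1000 mg/l active ingredient in 10% DMSO, equivalent to 1000 g/ha. Grown on at 24/19 °C, watered twice daily; damage scored after 9 days (0 = none, 100 = total).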

Stellaria media (STEME) = assay: as above; settings: Application post-emergence, 1000 mg/l spray equivalent to 1000 g/ha, evaluated after 9 days (100=total damage to plant, 0=no damage to plant)
Outline: as §2

[6] = system: Amaranthus retroflexus (AMARE); assay: as above; settings: Application post-emergence, 1000 mg/l spray equivalent to 1000 g/ha, evaluated after 9 days
Outline: as §2

Solanum nigrum (SOLNI) [7] = assay: as above; settings: Application post-emergence, 1000 mg/l spray equivalent to 1000 g/ha, evaluated after 9 days (100=total damage to plant, 0=no damage to plant)
Outline: as §2

SMILES | damage to plant, Setaria faberi (SETFA) (Setaria faberi (SETFA)) | damage to plant, Amaranthus retroflexus (AMARE) [1] | damage to plant, Ipomea hederaceae (IPOHE) [2] | damage to plant, Echinochloa crusgalli (ECHCG) [3] | damage to plant, Solanum nigrum (SOLNI) (Solanum nigrum (SOLNI) [4]) | damage to plant, Nasturtium officinale (NAAOF) [5] | damage to plant, Stellaria media (STEME) (Stellaria media (STEME)) | damage to plant, Amaranthus retroflexus (AMARE) [6] | damage to plant, Solanum nigrum (SOLNI) (Solanum nigrum (SOLNI) [7])
O=c1[nH]c2nccnc2c(O)c1-c1ccccc1Br [Compound A24] | 6 | 10 | 6 | 4 | 9 |  |  |  | 
O=c1[nH]c2nccnc2c(O)c1-c1c(Cl)cc(OC(F)(F)F)cc1Cl [Compound A36] | 8 | 7 | 0 | 10 | 8 |  |  |  | 
Cc1ccc(C)c(-c2c(O)c3nccnc3[nH]c2=O)c1 [Compound A37] | 7 | 4 | 1 | 7 | 6 |  |  |  | 
O=c1[nH]c2nccnc2c(O)c1-c1cc(F)ccc1Cl [Compound A38] | 9 | 10 | 0 | 8 | 9 |  |  |  | 
O=c1[nH]c2nccnc2c(O)c1-c1cc(F)c(Cl)cc1Cl [Compound A39] | 7 | 8 | 0 | 8 | 6 |  |  |  | 
O=c1[nH]c2nccnc2c(O)c1-c1c(F)ccc(Br)c1Cl [Compound A40] | 9 | 9 | 0 | 5 | 8 |  |  |  | 
CC(C)(C)C(=O)Oc1c(-c2c(Cl)cc(OC(F)(F)F)cc2Cl)c(=O)[nH]c2nccnc12 [Compound B42] | 8 | 0 | 0 | 1 | 5 |  |  |  | 
CC(C)(C)C(=O)Oc1c(-c2ccc(C(F)(F)F)cc2[N+](=O)[O-])c(=O)[nH]c2nccnc12 [Compound B44] | 0 | 7 |  | 3 | 3 |  |  |  | 
CC(C)C(=O)Oc1c(-c2cc(F)ccc2Cl)c(=O)[nH]c2nccnc12 [Compound B45] | 8 | 4 | 0 | 8 | 9 |  |  |  | 
CC(C)(C)C(=O)Oc1c(-c2cc(F)ccc2Cl)c(=O)[nH]c2nccnc12 [Compound B46] | 6 | 10 | 9 | 4 | 10 |  |  |  | 
CC(C)C(=O)Oc1c(-c2cc(F)c(Cl)cc2Cl)c(=O)[nH]c2nccnc12 [Compound B47] | 4 | 2 | 1 | 3 | 3 |  |  |  | 
CC(C)(C)C(=O)Oc1c(-c2c(F)ccc(Br)c2Cl)c(=O)[nH]c2nccnc12 [Compound B49] | 7 | 10 | 8 | 3 | 9 |  |  |  | 
CC(C)C(=O)Oc1c(-c2c(F)ccc(Br)c2Cl)c(=O)[nH]c2nccnc12 [Compound B50] | 8 | 10 | 8 | 8 | 9 |  |  |  | 
Cn1c(=O)c(-c2cccc(C(F)(F)F)c2Cl)c(OC(=O)C(C)(C)C)c2nccnc21 [Compound C123] |  |  |  |  |  | 4 | 6 | 4 | 6
CC(C)C(=O)Oc1c(-c2cccc(C(F)(F)F)c2Cl)c(=O)n(CC2CC2)c2nccnc12 [Compound C124] |  |  |  |  |  | 8 | 8 | 9 | 7
C=CCn1c(=O)c(-c2cccc(C(F)(F)F)c2Cl)c(OC(=O)C(C)C)c2nccnc21 [Compound C125] |  |  |  |  |  | 7 | 7 | 2 | 8
Cc1ccc(F)c(-c2c(OC(=O)C(C)C)c3nccnc3n(C)c2=O)c1Cl [Compound C126] |  |  |  |  |  | 6 | 7 | 6 | 7
CCn1c(=O)c(-c2c(F)ccc(C)c2Cl)c(OC(=O)C(C)C)c2nccnc21 [Compound C127] |  |  |  |  |  | 6 | 7 | 2 | 7
Cc1ccc(F)c(-c2c(OC(=O)C(C)(C)C)c3nccnc3n(C)c2=O)c1Cl [Compound C128] |  |  |  |  |  | 6 | 6 | 3 | 7
Cn1c(=O)c(-c2ccccc2I)c(OC(=O)C(C)(C)C)c2nccnc21 [Compound C136] | 8 | 9 |  | 9 | 10 |  |  |  | 
CC#CCOC(=O)Oc1c(-c2c(Cl)cccc2Cl)c(=O)n(C)c2nccnc12 [Compound C178] |  |  |  |  |  | 6 | 7 | 4 | 2
CCn1c(=O)c(-c2ccccc2Cl)c(OC(C)=O)c2nccnc21 [Compound C185] |  |  |  |  |  | 8 | 10 | 4 | 4
CCn1c(=O)c(-c2c(F)ccc(F)c2Cl)c(O)c2nccnc21 [Compound D2] |  |  |  |  |  | 8 | 8 | 6 | 8
Cn1c(=O)c(-c2ccc(Cl)cc2Cl)c(O)c2nccnc21 [Compound D3] |  |  |  |  |  | 8 | 8 | 0 | 8
Cn1c(=O)c(-c2c(F)ccc(F)c2Cl)c(O)c2c1ncc[n+]2[O-] [Compound D6, 7-(2-chloro-3,6-difluorophenyl)-8-hydroxy-5-methyl-1-oxy-5H-pyrido[2,3-b]pyrazin-6-one] |  |  |  |  |  | 7 | 6 | 5 | 3
